In article PMC6941952, “A homogeneous bioluminescent immunoassay to probe cellular signaling pathway regulation” (Communications Biology, 2020):

Test system: phospho-IκBα (Ser32)
Experiment: NanoBiT cell-based immunoassay, phosphorylated IκBα in MCF-7 cells
Set-up: species or system human
Details: for Raw data / Subtract reagent background: TNF
Description: Prior to NanoBiT Cell-Based Immunoassay, 50,000 cells were seeded in 160 µl of complete growth media per well of a 96-well plate and incubated overnight. The cells were checked under microscope and it was determined that 50,000 cells per well in 96-well plate is under 90% confluency for all cells tested. If necessary, the cell culture media were replaced with serum-free media after the cells were stably adherent on the plate and incubated overnight. To treat cells with activators or inhibitors, medium was changed to 30 µl of medium containing inhibitors. If activation of a specific pathway is needed, the cells were stimulated with 10 µl of medium containing activators. To lyse the cells, 10 µl of lysis buffer containing 0.1% digitonin diluted in 1X immunoassay buffer with protease and phosphatase inhibitors was added and the plates were mixed vigorously for 20 min. Then, 50 µl of an antibody mix containing two primary antibodies against the target protein and NanoBiT detecting antibodies (0.3 µl each per well), diluted in 1X immunoassay buffer was added to the lysates. The plates were incubated at 23 °C for 90 min, followed by the addition of 25 µl of Nano-Glo® reagent consisting of Nano-Glo® Luciferase Assay Substrate mixed with 1X immunoassay buffer. Luminescence was measured using a plate-reading luminometer.
In all, 50,000 MCF-7 cells were seeded in 160 µl complete growth medium per well of a 96-well plate and incubated overnight. Half of the cells were treated with 50 ng per ml TNFα and half with vehicle. Cells were lysed as described above and a mixture of NanoBiT secondary antibodies with primary antibodies at the matrix concentrations described in Fig. 2a were added. After 90 min incubation, the Nano-Glo® reagent was added to the reactions as described above and luminescence was measured using a plate-reading luminometer.
Single dose or dose response inhibitor treatments were performed prior to activation of the pathways as follows. For IκBα, the cells were treated in 30 µl medium with IKK16 or MG132 for 60 min before the addition of 10 µl of DMEM containing appropriate concentration of TNFα. To measure phosphorylation of AKT or STAT3, the corresponding NanoBiT immunoassays were developed with MCF-7 or A431 cells, respectively, according the same scheme used to develop the IκBα assay using the primary antibodies for AKT and STAT3 described in the reagents section. For the AKT assay, MCF-7 cells were incubated overnight in phenol-red free DMEM medium (Gibco #21063-029) without serum. Treatment with LY294002 was performed in 30 µl medium and cells were incubated for 60 min before the addition of 1 µM Insulin. To measure STAT3 phosphorylation, A431 cells were incubated overnight in DMEM medium without serum. […] After addition of the stimulators, the cells were incubated for additional times as follows. IκBα phosphorylation and degradation analyses required both time courses and single time points as described in figures. […] The NanoBiT immunoassay protocol was followed as described above.
All 96-well assay plates were read using a GloMax® 96 Microplate Luminometer from Promega. The instrument was set to 0.5 s integration time. In order to obtain net change of signal, the reagent background values (signal from the well containing all reagent except primary antibodies) were subtracted from the sample values. To plot and analyze the data, Microsoft Excel and GraphPad Prism® Software were used. IC50 values were determined by using a nonlinear regression fit to a sigmoidal dose response (variable slope).

[1] = plate #3, IkB Ab #3 75 ng/ml, P-IkB Ab #2 75 ng/ml
[2] = plate #3, IkB Ab #3 75 ng/ml, P-IkB Ab #2 150 ng/ml
[3] = plate #3, IkB Ab #3 75 ng/ml, P-IkB Ab #2 300 ng/ml
[4] = plate #3, IkB Ab #3 75 ng/ml, P-IkB Ab #2 600 ng/ml
[5] = plate #3, IkB Ab #3 75 ng/ml, P-IkB Ab #2 1200 ng/ml
[6] = plate #3, IkB Ab #3 150 ng/ml, P-IkB Ab #2 75 ng/ml
[7] = plate #3, IkB Ab #3 150 ng/ml, P-IkB Ab #2 150 ng/ml
[8] = plate #3, IkB Ab #3 150 ng/ml, P-IkB Ab #2 300 ng/ml
[9] = plate #3, IkB Ab #3 150 ng/ml, P-IkB Ab #2 600 ng/ml
[10] = plate #3, IkB Ab #3 150 ng/ml, P-IkB Ab #2 1200 ng/ml
[11] = plate #3, IkB Ab #3 300 ng/ml, P-IkB Ab #2 75 ng/ml
[12] = plate #3, IkB Ab #3 300 ng/ml, P-IkB Ab #2 150 ng/ml
[13] = plate #3, IkB Ab #3 300 ng/ml, P-IkB Ab #2 300 ng/ml
[14] = plate #3, IkB Ab #3 300 ng/ml, P-IkB Ab #2 600 ng/ml
[15] = plate #3, IkB Ab #3 300 ng/ml, P-IkB Ab #2 1200 ng/ml
[16] = plate #3, IkB Ab #3 600 ng/ml, P-IkB Ab #2 75 ng/ml
[17] = plate #3, IkB Ab #3 600 ng/ml, P-IkB Ab #2 150 ng/ml
[18] = plate #3, IkB Ab #3 600 ng/ml, P-IkB Ab #2 300 ng/ml
[19] = plate #3, IkB Ab #3 600 ng/ml, P-IkB Ab #2 600 ng/ml
[20] = plate #3, IkB Ab #3 600 ng/ml, P-IkB Ab #2 1200 ng/ml
[21] = plate #3, IkB Ab #3 1200 ng/ml, P-IkB Ab #2 75 ng/ml
[22] = plate #3, IkB Ab #3 1200 ng/ml, P-IkB Ab #2 150 ng/ml
[23] = plate #3, IkB Ab #3 1200 ng/ml, P-IkB Ab #2 300 ng/ml
[24] = plate #3, IkB Ab #3 1200 ng/ml, P-IkB Ab #2 600 ng/ml
[25] = plate #3, IkB Ab #3 1200 ng/ml, P-IkB Ab #2 1200 ng/ml

Substance: TNFα
- Fold change (TNF-treated /Non-treated) (plate #2, IkB Ab #2 (Mouse) 600 ng/ml, P-IkB Ab #1 (Rabbit) 1200 ng/ml, listed as TNF): 0.8
- Fold change (TNF-treated /Non-treated) (plate #2, IkB Ab #2 (Mouse) 1200 ng/ml, P-IkB Ab #1 (Rabbit) 75 ng/ml): 1.511
- Fold change (TNF-treated /Non-treated) (plate #2, IkB Ab #2 (Mouse) 1200 ng/ml, P-IkB Ab #1 (Rabbit) 75 ng/ml, listed as TNF): 1.5
- Fold change (TNF-treated /Non-treated) (plate #2, IkB Ab #2 (Mouse) 1200 ng/ml, P-IkB Ab #1 (Rabbit) 150 ng/ml): 2.468
- Fold change (TNF-treated /Non-treated) (plate #2, IkB Ab #2 (Mouse) 1200 ng/ml, P-IkB Ab #1 (Rabbit) 150 ng/ml, listed as TNF): 2.5
- Fold change (TNF-treated /Non-treated) (plate #2, IkB Ab #2 (Mouse) 1200 ng/ml, P-IkB Ab #1 (Rabbit) 300 ng/ml): 2.168
- Fold change (TNF-treated /Non-treated) (plate #2, IkB Ab #2 (Mouse) 1200 ng/ml, P-IkB Ab #1 (Rabbit) 300 ng/ml, listed as TNF): 2.2
- Fold change (TNF-treated /Non-treated) (plate #2, IkB Ab #2 (Mouse) 1200 ng/ml, P-IkB Ab #1 (Rabbit) 600 ng/ml): 2.1086
- Fold change (TNF-treated /Non-treated) (plate #2, IkB Ab #2 (Mouse) 1200 ng/ml, P-IkB Ab #1 (Rabbit) 600 ng/ml, listed as TNF): 2.1
- Fold change (TNF-treated /Non-treated) (plate #2, IkB Ab #2 (Mouse) 1200 ng/ml, P-IkB Ab #1 (Rabbit) 1200 ng/ml): 1.784
- Fold change (TNF-treated /Non-treated) (plate #2, IkB Ab #2 (Mouse) 1200 ng/ml, P-IkB Ab #1 (Rabbit) 1200 ng/ml, listed as TNF): 1.8
- Raw data [1]: 20510
- Subtract reagent background [1]: 5320
- Raw data [2]: 20430
- Subtract reagent background [2]: 5240
- Raw data [3]: 19120
- Subtract reagent background [3]: 3930
- Raw data [4]: 17590
- Subtract reagent background [4]: 2400
- Raw data [5]: 16090
- Subtract reagent background [5]: 900
- Raw data [6]: 27550
- Subtract reagent background [6]: 12360
- Raw data [7]: 26450
- Subtract reagent background [7]: 11260
- Raw data [8]: 24490
- Subtract reagent background [8]: 9300
- Raw data [9]: 21590
- Subtract reagent background [9]: 6400
- Raw data [10]: 19970
- Subtract reagent background [10]: 4780
- Raw data [11]: 26220
- Subtract reagent background [11]: 11030
- Raw data [12]: 24040
- Subtract reagent background [12]: 8850
- Raw data [13]: 23970
- Subtract reagent background [13]: 8780
- Raw data [14]: 20830
- Subtract reagent background [14]: 5640
- Raw data [15]: 19500
- Subtract reagent background [15]: 4310
- Raw data [16]: 24590
- Subtract reagent background [16]: 9400
- Raw data [17]: 22810
- Subtract reagent background [17]: 7620
- Raw data [18]: 23190
- Subtract reagent background [18]: 8000
- Raw data [19]: 21540
- Subtract reagent background [19]: 6350
- Raw data [20]: 20460
- Subtract reagent background [20]: 5270
- Raw data [21]: 23630
- Subtract reagent background [21]: 8440
- Raw data [22]: 23620
- Subtract reagent background [22]: 8430
- Raw data [23]: 22930
- Subtract reagent background [23]: 7740
- Raw data [24]: 22240
- Subtract reagent background [24]: 7050
- Raw data [25]: 21740
- Subtract reagent background [25]: 6550
- Fold change (TNF-treated /Non-treated) (plate #3, IkB Ab #3 (Rabbit) 150 ng/ml, P-IkB Ab #2 (Mouse) 75 ng/ml): 3.572
- Fold change (TNF-treated /Non-treated) (plate #3, IkB Ab #3 (Rabbit) 150 ng/ml, P-IkB Ab #2 (Mouse) 150 ng/ml): 2.066
- Fold change (TNF-treated /Non-treated) (plate #3, IkB Ab #3 (Rabbit) 150 ng/ml, P-IkB Ab #2 (Mouse) 300 ng/ml): 1.553
- Fold change (TNF-treated /Non-treated) (plate #3, IkB Ab #3 (Rabbit) 150 ng/ml, P-IkB Ab #2 (Mouse) 600 ng/ml): 1.339
- Fold change (TNF-treated /Non-treated) (plate #3, IkB Ab #3 (Rabbit) 150 ng/ml, P-IkB Ab #2 (Mouse) 1200 ng/ml): 0.8968
- Fold change (TNF-treated /Non-treated) (plate #3, IkB Ab #3 (Rabbit) 300 ng/ml, P-IkB Ab #2 (Mouse) 75 ng/ml): 2.895
- Fold change (TNF-treated /Non-treated) (plate #3, IkB Ab #3 (Rabbit) 300 ng/ml, P-IkB Ab #2 (Mouse) 150 ng/ml): 1.664
- Fold change (TNF-treated /Non-treated) (plate #3, IkB Ab #3 (Rabbit) 300 ng/ml, P-IkB Ab #2 (Mouse) 300 ng/ml): 1.602
- Fold change (TNF-treated /Non-treated) (plate #3, IkB Ab #3 (Rabbit) 300 ng/ml, P-IkB Ab #2 (Mouse) 600 ng/ml): 1.153
- Fold change (TNF-treated /Non-treated) (plate #3, IkB Ab #3 (Rabbit) 300 ng/ml, P-IkB Ab #2 (Mouse) 1200 ng/ml): 0.9289
- Fold change (TNF-treated /Non-treated) (plate #3, IkB Ab #3 (Rabbit) 600 ng/ml, P-IkB Ab #2 (Mouse) 75 ng/ml): 2.035
- Fold change (TNF-treated /Non-treated) (plate #3, IkB Ab #3 (Rabbit) 600 ng/ml, P-IkB Ab #2 (Mouse) 150 ng/ml): 1.414
- Fold change (TNF-treated /Non-treated) (plate #3, IkB Ab #3 (Rabbit) 600 ng/ml, P-IkB Ab #2 (Mouse) 300 ng/ml): 1.541
- Fold change (TNF-treated /Non-treated) (plate #3, IkB Ab #3 (Rabbit) 600 ng/ml, P-IkB Ab #2 (Mouse) 600 ng/ml): 1.301
- Fold change (TNF-treated /Non-treated) (plate #3, IkB Ab #3 (Rabbit) 600 ng/ml, P-IkB Ab #2 (Mouse) 1200 ng/ml): 1.1557
- Fold change (TNF-treated /Non-treated) (plate #3, IkB Ab #3 (Rabbit) 1200 ng/ml, P-IkB Ab #2 (Mouse) 75 ng/ml): 1.581
- Fold change (TNF-treated /Non-treated) (plate #3, IkB Ab #3 (Rabbit) 1200 ng/ml, P-IkB Ab #2 (Mouse) 150 ng/ml): 1.544
- Fold change (TNF-treated /Non-treated) (plate #3, IkB Ab #3 (Rabbit) 1200 ng/ml, P-IkB Ab #2 (Mouse) 300 ng/ml): 1.173
- Fold change (TNF-treated /Non-treated) (plate #3, IkB Ab #3 (Rabbit) 1200 ng/ml, P-IkB Ab #2 (Mouse) 600 ng/ml): 1.469
- Fold change (TNF-treated /Non-treated) (plate #3, IkB Ab #3 (Rabbit) 1200 ng/ml, P-IkB Ab #2 (Mouse) 1200 ng/ml): 1.2818
